Laboratory results taken from patent US4313943A, “7-Chloro-2,3-dihydro-5-phenyl-1-propargyl-1H-1,4-benzodiazepine-2-one, and a pharmaceutical composition thereof” (priority 1972, dated 1982).
Entries after “also recorded” stand apart in the source; their conditions may differ.

Assays:
[1] = Acute toxicity in the mouse (oral); details: in vivo, mouse (male)
Experimental: (§1) The test compounds shown in Table 2 were administered orally to male mice and rats in the form of a suspension in a 1% solution of sodium carboxymethyl cellulose. The LD50 (lethal dose 50%) was calculated by the method of Litchfield and Wilcoxon.

[2] = Acute toxicity in the rat (oral); details: in vivo
Experimental: as §1

[3] = Anti-convulsant activity in the mouse (convulsions induced by 1,5-pentamethylenetetrazole); format: in vivo; details: 30 min before pentamethylenetetrazole s.c.
Experimental: The inhibition of convulsions induced by 1,5-pentamethylenetetrazole was tested by the Clen method. The test compounds were administered orally to the mice, in the doses shown in Table 3, in the form of suspensions in 1% sodium carboxymethyl cellulose solution, and 30 minutes later the test animals were injected subcutaneously with […] of 1,5-pentamethylenetetrazole. The number of mice protected from lethal extensorial tonic spasms, per group of 10 test animals, was recorded.

[4] = Potentiation of narcosis (hexobarbitone sodium) in the mouse, Winter method; format: in vivo; details: hexobarbitone sodium 80 mg/kg i.p., control 33.3
Experimental: The Winter method was used, in which a state of narcosis is induced by the intraperitoneal administration of 80 mg/kg of hexobarbitone sodium, and is assessed by the loss of the righting reflex in the test animal. […] orally to the animals, in doses shown in Table 4, as suspensions in 1% sodium carboxymethyl cellulose solution; and the prolongation of narcosis in the animals thus treated was observed, by comparison with controls which received only the hexobarbitone administration.

[5] = Myorelaxant activity in the mouse (traction test); format: in vivo; details: after 30 minutes
Experimental: This was determined by the traction test of Joulon Courvoisier, following Boissier and Simon, in which the mouse is suspended by its front paws to a horizontal metal wire, and the animal's capacity to get up with its hind paws is observed. The test compounds were administered orally to the animals, in the doses shown in Table 5, as suspensions in 1% sodium carboxymethyl cellulose solution; and the animals were tested 30 minutes and 180 minutes after administration. The test animals were deemed to be myorelaxant if unable to get up within 5 seconds.

[6] = Effect on muscular relaxation in mice (30° inclined screen, Randall); format: in vivo
Experimental: The method utilized was the procedure described by Randall (1961) using a 30° inclined screen.

[7] = Convulsions induced by pentamethylenetetrazol in rats; format: in vivo
Experimental: The method utilized was according to the method published by Everett and Richards (1944) and Banziger (1965). The pentamethylenetetrazol was given subcutaneously (125 mg/kg) and the test compounds were given orally suspended in a 1% carboxymethyl cellulose solution.

[8] = Hypnotic activity comparison (Janssen 1959); format: in vivo; details: Table 11; species not given
Experimental: Toxicity in test animals to the test compounds in terms of LD50 after oral and intraperitoneal administration was determined according to the procedure of Litchfield and Wilcoxan (1949) and the hypnotic effect on test animals was determined in accordance with the method of Janssen (1959).

[9] = ECoG and sedation in test animals free to move; format: in vivo; details: unrestricted animals; compound 3 at 10 mg/kg
Experimental: Some test animals were kept in restraint cases placed in a relatively soundproof room and some were left free to move in metal cases measuring 40×50×30 cm, which were also kept in a relatively quiet environment.
In the test animals which were free to move, the first signs of sedation produced by the intragastric administration of 7.5 mg/kg of compounds 1 and 4 appeared, respectively, at 16 minutes (compound 1) and at 8 minutes (compound 4). […] The duration of the effect was, however, shorter, not exceeding 3 hours under these conditions in contrast to the 5 hour minimum for restricted animals.

[10] = Electrogenesis of various subcortical centers; format: in vivo; details: in vivo
Experimental: This study was conducted with test animals weighing between 2.6 and 2.8 kg, following the stereotaxic method of Monnier and Gangloff (Atlas et techniques stereotaxique pour le cerveau du lopin eveille, 1961, Elsevier Pub. Co.), permitting the stimulation of certain subcortical structures as well as a simultaneous detection and recording of their electrical activities, which were compared to that of reference cortical electrodes. In this study, the subcortical centers considered were the caudate nucleus, the dorsal hippocampus, the lateral thalamus, the mesenephalic reticular formation, and the hypothalamic reticular formation. Test compounds 1 and 4 were administered by the intragastric route with an identical dose of 7.5 mg/kg.
Spontaneous activity in the subcortical centers of the unanesthetized animals is characterized by desynchronized activity consisting of high amplitude and relatively slow rhythms (4 to 5 c/sec.), alternating with low amplitude rapid rhythms (12 to 13 c/sec.). Tracings from the hippocampus and caudate nucleus sometimes takes the form of bursts, which is less commonly the case from the thalamus. These may occur at the same time as bursts of rapid spikes arising from the frontal cortex. During periods of arousal, this desynchronized activity is followed by a synchronized theta rhythm (7 to 8 c/sec.) from the hippocampus and caudate nucleus and from the median thalamus, whereas the cortical and reticular electrical activities are transformed into ultra-rapid and low voltage rhythms (30μ volts).

[11] = Motor coordination in rats (rotarod, Dunham and Miya 1957); details: 68 mg/kg/os

## C#CCN1C(=O)CN=C(c2ccccc2)c2cc([N+](=O)[O-])ccc21 [Compound 2, 7-nitro-2,3-dihydro-5-phenyl-1-propargyl-1H-1,4-benzodiazepin-2-one]
[1]
  LD50: 1880 mg/kg
[2]
  LD50: 876 mg/kg
[3]; 0.12 mg/kg oral
  No. of Animals Protected: 1/10
[3]; 0.25 mg/kg oral
  No. of Animals Protected: 4/10
[3]; 0.5 mg/kg oral
  No. of Animals Protected: 9/10
[4]; 0.5 mg/kg oral
  Duration of narcosis: 53.4 min
[4]; 1.0 mg/kg oral
  Duration of narcosis: 94.5 min
[4]; 2.0 mg/kg oral
  Duration of narcosis: 195.1 min
[5]; 1.0 mg/kg oral
  Percentage of myorelaxant animals: 10%
[5]; 2.0 mg/kg oral
  Percentage of myorelaxant animals: 20%
[5]; 4.0 mg/kg oral
  Percentage of myorelaxant animals: 40%
[5]; 8.0 mg/kg oral
  Percentage of myorelaxant animals: 60%

## CN1C(=O)CN=C(c2ccccc2)c2cc(Cl)ccc21 [Compound 3, 7-chloro-1,3-dihydro-1-methyl-5-phenyl-2H-1,4-benzodiazepin-2-one, reference compound]
[6]; 10 mg/kg/os
  % Relaxed Animals: 20%
[6]; Mus musculus, po, muscular relaxation, read-out: ED50 (and C.L.)
  ED50: 14.1 mg/kg
[7]; Rattus norvegicus, oral, protection against pentamethylenetetrazol, read-out: ED50 (and C.L.) (converted)
  ED50: 7.8 mg/kg
[7]; Time 90 min.
  % Protected Animals: 20%
[7]; Time 120 min.
  % Protected Animals: 10%
[7]; Time 180 min.
  % Protected Animals: 0%
[7]; Time 240 min.
  % Protected Animals: 0%
[8]
  ED50: 242 mg/kg
[9]
  duration of ECoG effects (three compounds compared): about 31/2
[10]; listed as Valium
  EEG activity of the hippocampus: depressed; also recorded: reduction in the amplitude of the hippocampal rhythm
[11]
  % Uncoordinated Animals: 50%

## CNC1=Nc2ccc(Cl)cc2C(c2ccccc2)=[N+]([O-])C1 [Librium, reference compound]
[10]
  EEG activity of the hippocampus: depressed; also recorded: reduction in the amplitude of the hippocampal rhythm
